Source: patent US8697709B2, “Fused ring heteroaryl kinase inhibitors” (The Regents of the University of California, priority 2008, dated 2014)
Where a chain is given by its changes, count along the chain named. Like-named read-outs stand apart in the source and are kept apart here.

Tests used:
Assay type in all cases: biochemical
Abl = target: T1, Abl (Homo sapiens, UniProt P00519); assay: In vitro kinase assay (32P peptide phosphorylation), WT Abl; details: read-out: IC50 WT Abl
T1 sequence (P00519 242-493 limits assumed): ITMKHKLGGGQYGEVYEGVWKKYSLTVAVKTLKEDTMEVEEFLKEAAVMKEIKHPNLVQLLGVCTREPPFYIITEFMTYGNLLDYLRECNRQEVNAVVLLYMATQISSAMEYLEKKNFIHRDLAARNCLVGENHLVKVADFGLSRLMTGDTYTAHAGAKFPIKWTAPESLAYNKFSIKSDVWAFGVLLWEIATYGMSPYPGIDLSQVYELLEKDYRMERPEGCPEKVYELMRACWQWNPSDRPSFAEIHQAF

c-Src = c-Src (Gallus gallus, UniProt P00523); assay: In vitro kinase assay (32P peptide phosphorylation), WT Src
T315A Abl = target: T2, T315A Abl (Homo sapiens, UniProt P00519, T315A); assay: In vitro kinase assay, T315A Abl; details: Table 1a
T2 sequence (P00519 242-493 T315A limits assumed): T1 sequence (P00519 242-493 limits assumed) with T74A
Procedure: (§1) Kinase reactions were initiated by the addition of […] cold ATP supplemented with 5 mCi γ^32P ATP and allowed to proceed at room temperature (RT). At 10 minutes […] of the reactions were spotted onto phosphocellulose sheets (P81, Whatman) and subsequently soaked in wash buffer (1.0% (v/v) phosphoric acid). The sheets were washed five times in buffer, dried, and transferred radioactivity was measured by phosphorimaging using a TyphoonTM scanner (Molecular Dynamics). Radioactive counts were quantified using ImageQuantTM software, and titration data were fit to a sigmoidal dose response to derive IC50 values using the Prism® software package. Dose responses were based on a 12 point inhibitor titration, using 1⁄3 dilutions starting from […]. Experiments were completed 2-4 times to derive mean values.

T338G Src = T338G Src (Gallus gallus, UniProt P00523, T338G); assay: In vitro kinase assay, T338G Src
Procedure: as §1

[1] = Table 1a, read-out: IC50 WT Src
[2] = Table 1b, read-out: IC50 WT Src
[3] = unphosphorylated kinase domain, 100 mM ATP, read-out: IC50 for c-Src

SMILES | IC50 (c-Src; [1]) [nM] | IC50 (T315A Abl) [nM] | IC50 (T338G Src; Table 1a) [nM] | IC50 (c-Src; [2]) [nM] | further results
CC(C)(C)OC(=O)N1CC[C@@H](n2nc(-c3ccc(NC(=O)Nc4cccc(C(F)(F)F)c4)cc3)c3c(N)ncnc32)C1 [AD79, (R)-tert-butyl 3-(4-amino-3-(4-(3-(3-(trifluoromethyl)phenyl)ureido)phenyl)-1H-pyrazolo[3,4-d]pyrimidin-1-yl)pyrrolidine-1-carboxylate] | < 1000 |  |  |  | IC50 (Abl; Table 1a): 1000 to 5000 nM
Nc1ncnc2c1c(Cc1cccc(NC(=O)c3cccc(C(F)(F)F)c3)c1)nn2CC1CC1 [BB13] | > 5000 | < 1000 | < 1000 |  | 
Nc1ncnc2c1c(-c1ccc(NC(=O)c3cccc(C(F)(F)F)c3)cc1)nn2[C@@H]1CCOC1 [AD68, N-(4-(4-amino-1-((R)-tetrahydrofuran-3-yl)-1H-pyrazolo[3,4-d]pyrimidin-3-yl)phenyl)-3-(trifluoromethyl)benzamide] |  |  |  | > 5000 | IC50 (Abl; Table 1b): > 5000 nM
Cn1nc(Cc2ccc(NC(=O)c3cccc(C(F)(F)F)c3)cc2)c2c(N)ncnc21 [AD7] | 1000 to 5000 | 1000 to 5000 | > 5000 |  | 
CC(C)(C)OC(=O)N1CC[C@H](n2nc(-c3ccc(NC(=O)Nc4cccc(C(F)(F)F)c4)cc3)c3c(N)ncnc32)C1 [AD78, (S)-tert-butyl 3-(4-amino-3-(4-(3-(3-(trifluoromethyl)phenyl)ureido)phenyl)-1H-pyrazolo[3,4-d]pyrimidin-1-yl)pyrrolidine-1-carboxylate] | < 1000 |  |  |  | IC50 (Abl; Table 1a): 1000 to 5000 nM
Nc1ncnc2c1c(Cc1cccc(NC(=O)Nc3cccc(C(F)(F)F)c3)c1)nn2CC1CC1 [BB14] | < 1000 | < 1000 | < 1000 |  | 
Nc1ncnc2c1c(-c1ccc(NC(=O)Nc3cccc(C(F)(F)F)c3)cc1)nn2[C@@H]1CCN(C(=O)Nc2cccc(C(F)(F)F)c2)C1 [AD73c, (R)-3-(4-amino-3-(4-(3-(3-(trifluoromethyl)phenyl)ureido)phenyl)-1H-pyrazolo[3,4-d]pyrimidin-1-yl)-N-(3-(trifluoromethyl)phenyl)pyrrolidine-1-carboxamide] | 1000 to 5000 |  |  |  | IC50 (Abl; Table 1a): > 5000 nM
Nc1ncnc2c1c(-c1ccc(NC(=O)Nc3cccc(C(F)(F)F)c3)cc1)nn2[C@H]1CCOC1 [AD66, 1-(4-(4-amino-1-((S)-tetrahydrofuran-3-yl)-1H-pyrazolo[3,4-d]pyrimidin-3-yl)phenyl)-3-(3-(trifluoromethyl)phenyl)urea] |  |  |  | < 1000 | IC50 (Abl; Table 1b): < 1000 nM
CC(C)(C)n1nc(Cc2cccc(NC(=O)c3cccc(C(F)(F)F)c3)c2)c2c(N)ncnc21 [AD25] | 1000 to 5000 | < 1000 | < 1000 |  | 
CC(C)n1nc(-c2cccc(NC(=O)c3cccc(C(F)(F)F)c3)c2)c2c(N)ncnc21 [AD52] |  |  |  | 1000 to 5000 | IC50 (T338G Src; Table 1b): < 1000 nM
Nc1ncnc2c1c(Cc1cccc(NC(=O)Nc3cccc(C(F)(F)F)c3)c1)nn2C1CCCC1 [BB10, 1-(3-((4-amino-1-cyclopentyl-1H-pyrazolo[3,4-d]pyrimidin-3-yl)methyl)phenyl)-3-(3-(trifluoromethyl)phenyl)urea] | < 1000 | < 1000 | < 1000 |  | IC50 (Abl; Table 1a): 1000 to 5000 nM; selectivity towards c-Src over Abl (c-Src; ratio of IC50 values c-Src vs Abl): approximately 5 fold
CC(C)n1nc(Cc2cccc(NC(=O)Nc3cccc(C(F)(F)F)c3)c2)c2c(N)ncnc21 [AD36, 1-(3-((4-amino-1-isopropyl-1H-pyrazolo[3,4-d]pyrimidin-3-yl)methyl)phenyl)-3-(3-(trifluoromethyl)phenyl)urea] | 1000 to 5000 | < 1000 | < 1000 |  | IC50 (Abl; Table 1a): 1000 to 5000 nM
Nc1ncnc2c1c(-c1ccc(NC(=O)c3cccc(C(F)(F)F)c3)cc1)nn2CCCO [AD65, N-(4-(4-amino-1-(3-hydroxypropyl)-1H-pyrazolo[3,4-d]pyrimidin-3-yl)phenyl)-3-(trifluoromethyl)benzamide] |  |  |  | > 5000 | IC50 (Abl; Table 1b): > 5000 nM
CC(C)(C)n1nc(Cc2cccc(NC(=O)Nc3cccc(C(F)(F)F)c3)c2)c2c(N)ncnc21 [AD26, 1-(3-((1-tert-butyl-4-amino-1H-pyrazolo[3,4-d]pyrimidin-3-yl)methyl)phenyl)-3-(3-(trifluoromethyl)phenyl)urea] | < 1000 | < 1000 | < 1000 |  | IC50 (Abl; Table 1a): < 1000 nM; IC50 (c-Src; [3]): 480 nM
Nc1ncnc2c1c(Cc1cccc(NC(=O)c3cccc(C(F)(F)F)c3)c1)nn2Cc1ccccc1 [BB5, N-(3-((4-amino-1-benzyl-1H-pyrazolo[3,4-d]pyrimidin-3-yl)methyl)phenyl)-3-(trifluoromethyl)benzamide] | 1000 to 5000 | 1000 to 5000 | 1000 to 5000 |  | 
Nc1ncnc2c1c(Cc1cccc(NC(=O)Nc3cccc(C(F)(F)F)c3)c1)nn2Cc1ccccc1 [BB6, 1-(3-((4-amino-1-benzyl-1H-pyrazolo[3,4-d]pyrimidin-3-yl)methyl)phenyl)-3-(3-(trifluoromethyl)phenyl)urea] | 1000 to 5000 | < 1000 | 1000 to 5000 |  | 
CC(C)n1nc(-c2cccc(NC(=O)Nc3cccc(C(F)(F)F)c3)c2)c2c(N)ncnc21 [AD53] |  |  |  | 1000 to 5000 | IC50 (T338G Src; Table 1b): < 1000 nM
Nc1ncnc2c1c(-c1ccc(NC(=O)c3cccc(C(F)(F)F)c3)cc1)nn2[C@H]1CCNC1 [AD70, N-(4-(4-amino-1-((S)-pyrrolidin-3-yl)-1H-pyrazolo[3,4-d]pyrimidin-3-yl)phenyl)-3-(trifluoromethyl)benzamide] |  |  |  | > 5000 | IC50 (Abl; Table 1b): > 5000 nM
Nc1ncnc2c1c(-c1ccc(NC(=O)Nc3cccc(C(F)(F)F)c3)cc1)nn2CCCO [AD64, 1-(4-(4-amino-1-(3-hydroxypropyl)-1H-pyrazolo[3,4-d]pyrimidin-3-yl)phenyl)-3-(3-(trifluoromethyl)phenyl)urea] |  |  |  | < 1000 | IC50 (Abl; Table 1b): > 5000 nM
Cn1nc(Cc2ccc(NC(=O)Nc3cccc(C(F)(F)F)c3)cc2)c2c(N)ncnc21 [AD8] | 1000 to 5000 | 1000 to 5000 | 1000 to 5000 |  | 
CC(C)n1nc(Cc2cccc(NC(=O)c3cccc(C(F)(F)F)c3)c2)c2c(N)ncnc21 [AD35] | > 5000 | < 1000 | 1000 to 5000 |  | 
Nc1ncnc2c1c(Cc1cccc(NC(=O)c3cccc(C(F)(F)F)c3)c1)nn2C1CCCC1 [BB9] | < 1000 | 1000 to 5000 | < 1000 |  | 
Nc1ncnc2c1c(-c1ccc(NC(=O)c3cccc(C(F)(F)F)c3)cc1)nn2[C@@H]1CCNC1 [AD72, N-(4-(4-amino-1-((R)-pyrrolidin-3-yl)-1H-pyrazolo[3,4-d]pyrimidin-3-yl)phenyl)-3-(trifluoromethyl)benzamide] |  |  |  | > 5000 | IC50 (Abl; Table 1b): > 5000 nM
Cn1nc(Cc2cccc(NC(=O)Nc3cccc(C(F)(F)F)c3)c2)c2c(N)ncnc21 [AD16, 1-(3-((4-amino-1-methyl-1H-pyrazolo[3,4-d]pyrimidin-3-yl)methyl)phenyl)-3-(3-(trifluoromethyl)phenyl)urea] | 1000 to 5000 | 1000 to 5000 | < 1000 |  | IC50 (Abl; Table 1a): 1000 to 5000 nM; IC50 (c-Src; [3]): ~6200 nM
CC(C)n1nc(-c2ccc(NC(=O)c3cccc(C(F)(F)F)c3)cc2)c2c(N)ncnc21 [AD56] |  |  |  | 1000 to 5000 | IC50 (T338G Src; Table 1b): < 1000 nM
Cn1nc(Cc2cccc(NC(=O)c3cccc(C(F)(F)F)c3)c2)c2c(N)ncnc21 [AD15] | > 5000 | < 1000 | 1000 to 5000 |  | 
Nc1ncnc2c1c(-c1ccc(NC(=O)Nc3cccc(C(F)(F)F)c3)cc1)nn2[C@H]1CCN(C(=O)Nc2cccc(C(F)(F)F)c2)C1 [AD71c, (S)-3-(4-amino-3-(4-(3-(3-(trifluoromethyl)phenyl)ureido)phenyl)-1H-pyrazolo[3,4-d]pyrimidin-1-yl)-N-(3-(trifluoromethyl)phenyl)pyrrolidine-1-carboxamide] | 1000 to 5000 |  |  |  | IC50 (Abl; Table 1a): > 5000 nM
Nc1ncnc2c1c(-c1ccc(NC(=O)Nc3cccc(C(F)(F)F)c3)cc1)nn2[C@@H]1CCOC1 [AD69, 1-(4-(4-amino-1-((R)-tetrahydrofuran-3-yl)-1H-pyrazolo[3,4-d]pyrimidin-3-yl)phenyl)-3-(3-(trifluoromethyl)phenyl)urea] |  |  |  | 1000 to 5000 | IC50 (Abl; Table 1b): > 5000 nM
Nc1ncnc2c1c(-c1ccc(NC(=O)c3cccc(C(F)(F)F)c3)cc1)nn2[C@H]1CCOC1 [AD67, N-(4-(4-amino-1-((S)-tetrahydrofuran-3-yl)-1H-pyrazolo[3,4-d]pyrimidin-3-yl)phenyl)-3-(trifluoromethyl)benzamide] |  |  |  | < 1000 | IC50 (Abl; Table 1b): 1000 to 5000 nM
